As usually defined, the IC50 is the midpoint of a concentration-inhibition curve.

Results on 8 molecules are retold here after US20090299044A1 (priority 2006, published 2009).

Bridge positions count the residues as written; N and C are the ends. Peptide text beside a SMILES is read from it.

Common to all, as to experiment: cell-based
The target of one experiment is T1, human Kv1.1 (HEK293) (Homo sapiens, UniProt Q09470).
T1 construct: expressed in transfected cells; host or cells: HEK293

Another experiment has as its target human Kv1.1 (Homo sapiens, UniProt Q09470). More on the design: expressed in transfected cells; host or cells: HEK293. As to conditions: Kv1.1 (IC50, pM).
The target of a further experiment is T2, human Kv1.3 (CHO) (Homo sapiens, UniProt P22001).
T2 construct: expressed in transfected cells; host or cells: CHO
T2 sequence (P22001 whole entry): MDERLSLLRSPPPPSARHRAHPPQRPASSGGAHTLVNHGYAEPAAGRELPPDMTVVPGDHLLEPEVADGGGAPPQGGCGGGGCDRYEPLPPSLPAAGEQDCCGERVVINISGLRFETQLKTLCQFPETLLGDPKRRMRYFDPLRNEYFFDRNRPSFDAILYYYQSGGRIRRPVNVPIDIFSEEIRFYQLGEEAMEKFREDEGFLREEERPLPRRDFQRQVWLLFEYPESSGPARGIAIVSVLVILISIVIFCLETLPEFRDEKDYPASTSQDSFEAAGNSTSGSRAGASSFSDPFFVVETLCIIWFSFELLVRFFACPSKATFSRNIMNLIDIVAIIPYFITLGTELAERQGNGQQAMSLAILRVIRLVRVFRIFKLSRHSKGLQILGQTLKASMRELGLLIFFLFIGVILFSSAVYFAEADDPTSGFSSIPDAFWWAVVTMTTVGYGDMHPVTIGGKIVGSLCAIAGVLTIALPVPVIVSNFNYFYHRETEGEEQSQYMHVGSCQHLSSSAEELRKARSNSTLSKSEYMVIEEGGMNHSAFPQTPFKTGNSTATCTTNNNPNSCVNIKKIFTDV

In another experiment the target is human Kv1.3 channel (Homo sapiens, UniProt P22001). Type of experiment: cell-based.
Sequence of human Kv1.3 channel (P22001 whole entry): as above

T1 sequence (Q09470 whole entry): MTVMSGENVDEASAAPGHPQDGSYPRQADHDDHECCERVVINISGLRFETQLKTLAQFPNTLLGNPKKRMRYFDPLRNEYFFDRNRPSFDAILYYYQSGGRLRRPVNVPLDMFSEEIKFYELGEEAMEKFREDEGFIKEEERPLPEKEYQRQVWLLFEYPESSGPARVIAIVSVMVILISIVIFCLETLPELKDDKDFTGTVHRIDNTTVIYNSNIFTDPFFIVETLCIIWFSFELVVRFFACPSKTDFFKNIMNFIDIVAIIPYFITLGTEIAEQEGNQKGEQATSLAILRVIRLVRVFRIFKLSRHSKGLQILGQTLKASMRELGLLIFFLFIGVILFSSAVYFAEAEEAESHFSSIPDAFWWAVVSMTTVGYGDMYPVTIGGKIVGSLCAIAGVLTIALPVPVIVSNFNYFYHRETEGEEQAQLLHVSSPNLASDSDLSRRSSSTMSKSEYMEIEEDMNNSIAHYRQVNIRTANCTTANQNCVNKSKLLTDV
Sequence of human Kv1.1 (Q09470 whole entry): as above

With `CC[C@H](C)[C@@H]1NC(=O)[C@H](CCCCN)NC(=O)[C@@H](NC(=O)[C@H](CCCCN)NC(=O)[C@@H](NC(=O)[C@H](CC(N)=O)NC(=O)[C@@H](NC(=O)[C@@H](NC(=O)[C@@H](NC(=O)CN)C(C)C)[C@@H](C)CC)[C@@H](C)CC)C(C)C)CSSC[C@@H]2NC(=O)[C@H](CCCCN)NC(=O)CNC(=O)[C@H](Cc3ccccc3)NC(=O)[C@H](CCCNC(=N)N)NC(=O)[C@H](CCSC)NC(=O)CNC(=O)[C@H](C)NC(=O)[C@H](CCCCN)NC(=O)[C@H](CCCCN)NC(=O)[C@@H]3CSSC[C@@H](C(=O)N[C@H](C(=O)N4CCC[C@H]4C(=O)N[C@@H](CCCCN)C(=O)O)[C@@H](C)O)NC(=O)[C@H](C)NC(=O)[C@H](CSSC[C@H](NC(=O)[C@H](CCC(N)=O)NC(=O)[C@H](CCCNC(=N)N)NC(=O)[C@H](CO)NC1=O)C(=O)N[C@@H](CC(C)C)C(=O)N[C@@H](CCC(=O)O)C(=O)N1CCC[C@H]1C(=O)N3)NC(=O)[C@H](CCCCN)NC(=O)CNC(=O)[C@H](CC(N)=O)NC(=O)[C@H](CCSC)NC2=O` [H34A] (H-GVIINVKCKISRQCLEPCKKAGMRFGKCMNGKCACTPK-OH; disulfide 8-28, 14-33, 18-35), the IC50 against human Kv1.1 (HEK293) was 0.368 nM; at human Kv1.1, 12800 pM; against human Kv1.3 (CHO) it was 0.0194 nM; against human Kv1.3 channel, 0.016 nM.

As for `CC[C@H](C)[C@@H]1NC(=O)[C@H](CCCCN)NC(=O)[C@@H](NC(=O)[C@H](CCCCN)NC(=O)[C@@H](NC(=O)[C@H](CC(N)=O)NC(=O)[C@@H](NC(=O)[C@@H](NC(=O)[C@@H](NC(=O)CN)C(C)C)[C@@H](C)CC)[C@@H](C)CC)C(C)C)CSSC[C@@H]2NC(=O)[C@H](CCCCN)NC(=O)CNC(=O)[C@H](Cc3ccccc3)NC(=O)[C@H](CCCNC(=N)N)NC(=O)[C@H](CCSC)NC(=O)CNC(=O)[C@H](C)NC(=O)[C@H](CCCCN)NC(=O)[C@H](CCCCN)NC(=O)[C@@H]3CSSC[C@@H](C(=O)N[C@H](C(=O)N4CCC[C@H]4C(=O)N[C@@H](CCCCN)C(=O)O)[C@@H](C)O)NC(=O)[C@H](Cc4c[nH]cn4)NC(=O)[C@H](CSSC[C@H](NC(=O)[C@H](CCC(N)=O)NC(=O)[C@H](CCCNC(=N)N)NC(=O)[C@H](CO)NC1=O)C(=O)N[C@@H](CC(C)C)C(=O)N[C@@H](CCC(=O)O)C(=O)N1CCC[C@H]1C(=O)N3)NC(=O)[C@H](CCCCN)NC(=O)CNC(=O)[C@H](CC(N)=O)NC(=O)[C@H](C)NC2=O` [M29A] (H-GVIINVKCKISRQCLEPCKKAGMRFGKCANGKCHCTPK-OH; disulfide 8-28, 14-33, 18-35), the IC50 against human Kv1.1 (HEK293) was over 3.33 nM; at human Kv1.1 it was 3470 pM; at human Kv1.3 (CHO) it was 0.0595 nM.

Consider `CC[C@H](C)[C@@H]1NC(=O)[C@H](CCCCN)NC(=O)[C@@H](NC(=O)[C@H](CCCCN)NC(=O)[C@@H](NC(=O)[C@H](CC(N)=O)NC(=O)[C@@H](NC(=O)[C@@H](NC(=O)[C@@H](NC(=O)CN)C(C)C)[C@@H](C)CC)[C@@H](C)CC)C(C)C)CSSC[C@@H]2NC(=O)[C@H](CCCCN)NC(=O)CNC(=O)[C@H](Cc3ccccc3)NC(=O)[C@H](CCCNC(=N)N)NC(=O)[C@H](CCSC)NC(=O)CNC(=O)[C@H](C)NC(=O)[C@H](CCCCN)NC(=O)[C@H](CCCCN)NC(=O)[C@@H]3CSSC[C@@H](C(=O)N[C@@H](CCCNC(=N)N)C(=O)N4CCC[C@H]4C(=O)N[C@@H](CCCCN)C(=O)O)NC(=O)[C@H](Cc4c[nH]cn4)NC(=O)[C@H](CSSC[C@H](NC(=O)[C@H](CCC(N)=O)NC(=O)[C@H](CCCNC(=N)N)NC(=O)[C@H](CO)NC1=O)C(=O)N[C@@H](CC(C)C)C(=O)N[C@@H](CCC(=O)O)C(=O)N1CCC[C@H]1C(=O)N3)NC(=O)[C@H](CCCCN)NC(=O)CNC(=O)[C@H](CC(N)=O)NC(=O)[C@H](CCSC)NC2=O` [T36R] (H-GVIINVKCKISRQCLEPCKKAGMRFGKCMNGKCHCRPK-OH; disulfide 8-28, 14-33, 18-35), for which the results for the IC50 against human Kv1.1 (HEK293) and on human Kv1.3 (CHO) were 0.0266 nM and 1.31 nM, respectively.

Turning to `CC[C@H](C)[C@@H]1NC(=O)[C@H](CCCCN)NC(=O)[C@@H](NC(=O)[C@H](CCCCN)NC(=O)[C@@H](NC(=O)[C@H](CC(N)=O)NC(=O)[C@@H](NC(=O)[C@@H](NC(=O)[C@H](CCC(=O)O)NC(=O)CN)[C@@H](C)CC)[C@@H](C)CC)C(C)C)CSSC[C@@H]2NC(=O)[C@H](CCCCN)NC(=O)CNC(=O)[C@H](Cc3ccccc3)NC(=O)[C@H](CCCNC(=N)N)NC(=O)[C@H](CCSC)NC(=O)CNC(=O)[C@H](C)NC(=O)[C@H](CCCCN)NC(=O)[C@H](CCCCN)NC(=O)[C@@H]3CSSC[C@@H](C(=O)N[C@H](C(=O)N4CCC[C@H]4C(=O)N[C@@H](CCCCN)C(=O)O)[C@@H](C)O)NC(=O)[C@H](Cc4c[nH]cn4)NC(=O)[C@H](CSSC[C@H](NC(=O)[C@H](CCC(N)=O)NC(=O)[C@H](CCCNC(=N)N)NC(=O)[C@H](CO)NC1=O)C(=O)N[C@@H](CC(C)C)C(=O)N[C@@H](CCC(=O)O)C(=O)N1CCC[C@H]1C(=O)N3)NC(=O)[C@H](CCCCN)NC(=O)CNC(=O)[C@H](CC(N)=O)NC(=O)[C@H](CCSC)NC2=O` [V2E] (H-GEIINVKCKISRQCLEPCKKAGMRFGKCMNGKCHCTPK-OH; disulfide 8-28, 14-33, 18-35), the results for the IC50 against human Kv1.1 (HEK293) and at human Kv1.3 (CHO) were 0.035 nM and 0.0362 nM, respectively.

In the case of `CC[C@H](C)[C@@H]1NC(=O)[C@H](CCCCN)NC(=O)[C@@H](NC(=O)[C@H](CCCCN)NC(=O)[C@@H](NC(=O)[C@H](CC(N)=O)NC(=O)[C@@H](NC(=O)[C@@H](NC(=O)[C@H](CCCNC(=N)N)NC(=O)CN)[C@@H](C)CC)[C@@H](C)CC)C(C)C)CSSC[C@@H]2NC(=O)[C@H](CCCCN)NC(=O)CNC(=O)[C@H](Cc3ccccc3)NC(=O)[C@H](CCCNC(=N)N)NC(=O)[C@H](CCSC)NC(=O)CNC(=O)[C@H](C)NC(=O)[C@H](CCCCN)NC(=O)[C@H](CCCCN)NC(=O)[C@@H]3CSSC[C@@H](C(=O)N[C@H](C(=O)N4CCC[C@H]4C(=O)N[C@@H](CCCCN)C(=O)O)[C@@H](C)O)NC(=O)[C@H](Cc4c[nH]cn4)NC(=O)[C@H](CSSC[C@H](NC(=O)[C@H](CCC(N)=O)NC(=O)[C@H](CCCNC(=N)N)NC(=O)[C@H](CO)NC1=O)C(=O)N[C@@H](CC(C)C)C(=O)N[C@@H](CCC(=O)O)C(=O)N1CCC[C@H]1C(=O)N3)NC(=O)[C@H](CCCCN)NC(=O)CNC(=O)[C@H](CC(N)=O)NC(=O)[C@H](CCSC)NC2=O` [V2R] (H-GRIINVKCKISRQCLEPCKKAGMRFGKCMNGKCHCTPK-OH; disulfide 8-28, 14-33, 18-35), the figures for the IC50 against human Kv1.1 (HEK293) and at human Kv1.3 (CHO) were 0.0258 nM and 0.133 nM, respectively.

For `CC[C@H](C)[C@@H]1NC(=O)[C@H](CCCCN)NC(=O)[C@@H](NC(=O)[C@H](CCCCN)NC(=O)[C@H](C)NC(=O)[C@H](CC(N)=O)NC(=O)[C@@H](NC(=O)[C@@H](NC(=O)[C@@H](NC(=O)CN)C(C)C)[C@@H](C)CC)[C@@H](C)CC)CSSC[C@@H]2NC(=O)[C@H](CCCCN)NC(=O)CNC(=O)[C@H](Cc3ccccc3)NC(=O)[C@H](CCCNC(=N)N)NC(=O)[C@H](CCSC)NC(=O)CNC(=O)[C@H](C)NC(=O)[C@H](CCCCN)NC(=O)[C@H](CCCCN)NC(=O)[C@@H]3CSSC[C@@H](C(=O)N[C@H](C(=O)N4CCC[C@H]4C(=O)N[C@@H](CCCCN)C(=O)O)[C@@H](C)O)NC(=O)[C@H](Cc4c[nH]cn4)NC(=O)[C@H](CSSC[C@H](NC(=O)[C@H](CCC(N)=O)NC(=O)[C@H](CCCNC(=N)N)NC(=O)[C@H](CO)NC1=O)C(=O)N[C@@H](CC(C)C)C(=O)N[C@@H](CCC(=O)O)C(=O)N1CCC[C@H]1C(=O)N3)NC(=O)[C@H](CCCCN)NC(=O)CNC(=O)[C@H](CC(N)=O)NC(=O)[C@H](CCSC)NC2=O` [V6A] (H-GVIINAKCKISRQCLEPCKKAGMRFGKCMNGKCHCTPK-OH; disulfide 8-28, 14-33, 18-35), the concentration for half-maximal inhibition (IC50) was 0.0128 nM against human Kv1.1 (HEK293) and 0.174 nM on human Kv1.3 (CHO).

`CC[C@H](C)[C@@H]1NC(=O)[C@H](CCCCN)NC(=O)[C@@H](NC(=O)[C@H](CCCCN)NC(=O)[C@H](CCC(=O)O)NC(=O)[C@H](CC(N)=O)NC(=O)[C@@H](NC(=O)[C@@H](NC(=O)[C@@H](NC(=O)CN)C(C)C)[C@@H](C)CC)[C@@H](C)CC)CSSC[C@@H]2NC(=O)[C@H](CCCCN)NC(=O)CNC(=O)[C@H](Cc3ccccc3)NC(=O)[C@H](CCCNC(=N)N)NC(=O)[C@H](CCSC)NC(=O)CNC(=O)[C@H](C)NC(=O)[C@H](CCCCN)NC(=O)[C@H](CCCCN)NC(=O)[C@@H]3CSSC[C@@H](C(=O)N[C@H](C(=O)N4CCC[C@H]4C(=O)N[C@@H](CCCCN)C(=O)O)[C@@H](C)O)NC(=O)[C@H](Cc4c[nH]cn4)NC(=O)[C@H](CSSC[C@H](NC(=O)[C@H](CCC(N)=O)NC(=O)[C@H](CCCNC(=N)N)NC(=O)[C@H](CO)NC1=O)C(=O)N[C@@H](CC(C)C)C(=O)N[C@@H](CCC(=O)O)C(=O)N1CCC[C@H]1C(=O)N3)NC(=O)[C@H](CCCCN)NC(=O)CNC(=O)[C@H](CC(N)=O)NC(=O)[C@H](CCSC)NC2=O` [V6E] (H-GVIINEKCKISRQCLEPCKKAGMRFGKCMNGKCHCTPK-OH; disulfide 8-28, 14-33, 18-35): the results for the IC50 on human Kv1.1 (HEK293) and on human Kv1.3 (CHO) were 0.00243 nM and 0.0177 nM, respectively.

With “Fc-L10-OSK1[K7S]: OSK1-peptibody with lysine to serine substitution at position 7”, the “fold difference in Kv1.3 potency compared to Fc-L10-OSK1” value with human Kv1.3 channel came to 2 fold.
